Assay results as given in a melting point compilation (Tetko et al.; mined from patent text by program, amines drawn as free bases though some values may be those of a salt).

SMILES | melting point [°C]
Cc1c2c(cnc3ccccc32)nn1-c1ccccc1 | 128 to 130
O=C1c2cc(F)ccc2OCC1C(=O)C(F)(F)F (stereo not drawn) | 107 to 112
CC(C)c1ccc(-c2ccc(Sc3ccccc3)s2)cc1 | 61 to 63
CCCCCCCCCCCCCCCCCCN(C)CC(O)CO (stereo not drawn) | 59
Cn1nc(-c2c(F)cccc2Cl)nc1-c1ccc(COc2ccc(C(F)(F)F)cc2Cl)c(Cl)c1 | 113 to 114
CC(C)n1c(SC(F)(F)C(F)F)nc(-c2ccc(F)cc2)c1-c1ccc(F)cc1 | 94 to 103
CN(C)c1ccc(C=Cc2ccc(N)cc2)cc1 | 168
CCCn1c(-n2nc(-c3c(-c4ccccc4)nn4ccccc34)ccc2=O)cc(=O)n(CC(=O)OC)c1=O | 191 to 195
O=c1c2cncc3cccc(c32)n2c([N+](=O)[O-])ccc12 | 192
COc1cc(OC)c2c(=O)c(OC)c(-c3ccc(O)c(OC)c3)oc2c1 | 221 to 223
CC(C)(C)c1cc(/C=C/C(=O)O)n(Cc2ccc(C(F)(F)F)cc2Cl)n1 | 175 to 176
Cc1nc(NC(=O)Nc2ccc(Cl)cc2)sc1C(=O)NCc1ccccc1 | > 300
CC(=N)NC(=O)Nc1ccc(C#N)c(Cl)c1 | 182 to 183
ClCn1cnc(Cl)c1Cl | 40 to 41
COc1cccc(Cn2cc3c(-c4cccc(C(=O)NCCO)c4)cccc3n2)n1 | 104 to 105
CC1(C)CCC(C)(C)c2cc(NC(=O)c3ccc(CO)cc3)ccc21 | 161 to 162
O=C(c1ccc(OCCn2ccnc2)cc1)N1CCOCC1 | 109 to 111
Cc1cc(C)cc(SCc2c(C(C)C)nc(C(C)C)c(CO)c2-c2ccc(F)cc2)c1 | 109 to 110
C=CCOc1cccc2c1C(=O)OC2=O | 115 to 117
Cc1ccc(C(=O)O)c(F)c1C1=NC(C)(C(C)C)C(=O)N1 (stereo not drawn) | 164 to 170
CCOC(=O)C1=C(COCC2COC(C)(C)O2)NC(C)=C(C(=O)OC)C1c1cccc(Cl)c1Cl (stereo not drawn) | 135 to 137
Cc1cc(N)ccc1-c1ccc(-c2ccc(N)cc2C)s1 | 86 to 88
CC(=O)c1ccc2c(c1)C1(C)C3(C)CCC(C3)C1(C)O2 (stereo not drawn) | 140 to 142
NS(=O)(=O)c1ccccc1-n1cccn1 | 167 to 170
Nc1sc2c(c1C(=O)c1ccc(I)c3ccccc13)CCC2 | 253 to 255

SMILES | melting point [°C]
O=C1c2ccccc2C(=O)N1OS(=O)(=O)c1ccc(Cl)cc1 | 178 to 180
O=C(Nc1nc(C(Cl)(Cl)Cl)ns1)c1ccc(Cl)cc1Cl | 136
Cc1nc(CC(N)=O)no1 | 112 to 114
Cc1noc(NS(=O)(=O)c2c(Cc3ccccc3)sc3ccccc23)c1Br | 120 to 123
NS(=O)(=O)c1ccc(CCO)s1 | 70 to 72
Cc1c(-c2ccccc2)nc2n1C(C)(C)Cc1ccccc1C2OC1CCN(C)CC1 (stereo not drawn) | 152
COc1ccc(CC(=O)O)cc1OCCc1ccccc1 | 88 to 89
CC(C)Cn1c(=O)n(C)c(=O)c2c(SCCCO)c(Cc3cccc(F)c3)sc21 | 99 to 100
CCCCNC(=O)c1ccc(Cl)c(-n2nc(CCCC)n(Cc3ccc(-c4ccccc4S(N)(=O)=O)cc3F)c2=O)c1 | 108 to 110
CC(C)c1ccc(-c2c(Cl)c(CN3C(=O)CCC3=O)nc3sc4c(c23)CCN(Cc2ccccc2)C4)cc1 | 201 to 202
COc1ccc(-c2nc(C)c(C(=O)O)s2)cc1 | 129 to 131
CC=Cc1c(-c2ccc(C(C)(C)C)cc2)[nH]c2nccnc12 | 207 to 208
Nc1ncnc2c([C@@H]3N[C@H](CO)[C@@H](O)[C@H]3O)c[nH]c12 | 238
O=C1NN(C(=O)Oc2ccc(Cl)cc2)C(c2ccccc2)C1c1ccccc1 (stereo not drawn) | 175 to 177
C=CC(c1ccc(C(C)C)cc1)c1c(C)c(NC=O)c(C)c(C)c1O (stereo not drawn) | 170 to 171
Cn1cc(-c2ccc(Cl)c(C(F)(F)F)c2)c(=O)c(-c2cccs2)c1 | 166 to 168
COC(=O)C1=C(C)NC(CO)=C(C(=O)OC)C1c1cccc2c(=O)c(C)c(-c3ccccc3)oc12 (stereo not drawn) | 231 to 233
Cc1cc(CNC(=O)c2ccnc(N3CCN(Cc4ccc(F)cc4)C3=O)c2)no1 | 153 to 155
CC1(C)C(=O)N(Cc2ccccc2Cl)OC1Nc1ccccc1 (stereo not drawn) | 99 to 101
O=C(NCC1CCCC1)c1ccc2cc[nH]c2c1 | 148 to 150
O=C(O)c1ccc(COCc2csc3nc(C(=O)NCc4cccc(F)c4)[nH]c(=O)c23)cc1 | 256 to 280
O=c1[nH]c2cc(Cl)cc(Cl)c2c(=O)n1Cc1ccncc1 | 354 to 364
Cc1ccccc1-c1cc(-n2cncn2)ncc1C(=O)N(C)Cc1cc(C(F)(F)F)cc(C(F)(F)F)c1 | 91 to 93
O=C(N1CCN(c2nc(N3CC=CC3)nc(N3CC=CC3)n2)CC1)n1ccnc1 | 160 to 162
CN(CCO)Cn1nc(-c2ccncc2)n(-c2ccccc2)c1=S | 173 to 174

SMILES | melting point [°C]
COC(=O)c1ccc(Oc2cc3c(cc2Br)C(C)(C)CCC3(C)C)cc1 | 135 to 136
CC(C)(C)OC(=O)NC1CCN(CC(=O)O)C1=O (stereo not drawn) | 62 to 64
O=C1CCC(N2C(=O)c3cccc(OCc4ccc(CN5CC6CCC(C5)O6)cc4)c3C2=O)C(=O)N1 (stereo not drawn) | 196 to 198
COC(=O)c1ccc2oc(=S)[nH]c2c1 | 218 to 221
CCc1c(-c2cc(C)c(O)c(C)c2)[nH]c2ccc(OC)cc12 | 176 to 178
O=C(CCCCCN1CCN(c2cccc3c2CCC3)CC1)N1Cc2ccccc2C1 | 112
CN(C)c1cccc(-c2ccc3nnn(Cc4ccc5ncccc5c4)c3n2)c1 | 124 to 126
CCCCc1oc2ccccc2c1-c1ncc(-c2ccc3cc(OCC#N)ccc3c2)o1 | 127
CCN(CC)c1cc(=S)ss1 | 93
CCCS(=O)(=O)c1ccc(NS(=O)(=O)c2cccs2)c2[nH]c(C(=O)OCC)cc12 | 201 to 202
CN(C)c1ccc(C(=O)c2ccc(N)cc2)cc1 | 150
O=C1c2c(Cl)cccc2-n2cncc2[C@@H]2CCN12 | 207 to 208
O=C1CN(c2nccc(Oc3ccc(NC(=O)c4cc(F)cc(N5CCOCC5)c4)c4ccccc34)n2)CCN1 | 108 to 110
O=C1CCC(N2Cc3c(OCc4ccc(CN5CCN(CC6CC6)CC5)cc4)cccc3C2=O)C(=O)N1 (stereo not drawn) | 176 to 178
C[C@@H](N(CCO)C(=O)c1ccc(C(F)(F)F)cc1)[C@](O)(Cn1cncn1)c1ccc(Cl)cc1Cl (relative stereo) | 185 to 189
CCCCCCCCCCCCn1nnc(C(C)(C)S(=O)(=O)Nc2c(C(C)C)cccc2C(C)C)n1 | 63 to 65
NCCc1cccc(N2C(=O)N(c3ccc(C(F)(F)F)cc3Cl)Cc3cnc(Nc4ccccc4)nc32)c1 | 102
CCc1cccc(C)c1CNc1cc(Cn2ccnc2)cn2nc(C)nc12 | 158
CCCCc1nc2c(N)nc3cccnc3c2n1CCCCN1CC(C(N)=O)=CC=C1N1CCOCC1 | 95 to 100
Nc1cc(O)ccc1CCCl | 96 to 100
O=C(O)C(=O)N1CCC(Cc2ccc(F)cc2)CC1 | 152 to 154
CC1(C)CCC(N)=CC1=O | 153 to 154
O=C(O)[C@@H]1C[C@H]1c1ccc([N+](=O)[O-])cc1 (relative stereo) | 195 to 196
CCOC(=O)C1=C(C)NC(N)=C(C(=O)OCC)C1c1ccco1 (stereo not drawn) | 183
O=c1ccc2c3ccccc3[nH]c2n1-c1ccccc1 | 308 to 309

SMILES | melting point [°C]
O=C(O)Cc1cc(Br)ccc1OCc1ccccc1 | 87 to 88.5
O=P(O)(O)COc1ccc2c(c1)[nH]c1ccccc12 | 291
CCS(=O)(=O)CCC(=O)NNC(=O)N1Cc2ccccc2Oc2ccc(N)cc21 | 172 to 179
CC1(c2ccc(OCc3ccccc3)c(Br)c2)C(=O)Nc2cc(Cl)cc(Cl)c2C1=O (stereo not drawn) | 189 to 190
Cc1cc(I)ccc1Nc1c(C2=NC(C)(C)CO2)ccc(F)c1F | 104
COC(=O)C(=Cc1cc(OC)cc(OC)c1)c1ccc(Oc2ccc(C=C3SC(=O)NC3=O)cc2)cc1 | 126 to 128
O=C(N(CCCc1c[nH]c2ccccc12)CCOc1cccc2[nH]c(=O)[nH]c12)C(F)(F)F | 180 to 181
NCC1Cc2cc(F)cc(-c3cccnc3)c2O1 (stereo not drawn) | 88 to 90
CCOP(=O)(NCC(=O)OCc1ccccc1)C1CC(c2ccccc2)=NO1 (stereo not drawn) | 91 to 103
CCOCc1cc(COc2cc(CCC(=O)O)n(-c3ccccc3)n2)cc(Oc2ncc(C(F)(F)F)cc2Cl)c1 | 124 to 128
Cc1ccc(-n2nc(C(C)(C)C)cc2NC(=O)Nc2ccc(OCC(=O)N3CCOCC3)c3ccccc23)cc1 | 240 to 241
CS(=O)(=O)N(N(CCCl)S(=O)(=O)c1ccccc1)S(C)(=O)=O | 114 to 115
CN(C)C(=O)c1cc(N(C)C)cc(C(=O)N(C)C)n1 | 175 to 178
Cc1nn2c(-c3ccc(Cl)cc3Cl)cccc2c1[N+](=O)[O-] | 146 to 150
Cc1cc(C(N)=O)ccc1O[C@@H]1CCNC[C@H]1O (relative stereo) | 210 to 212
N#CC(Cl)=C(Cl)S(=O)(=O)c1ccccc1 | 72
CC(C)Sc1c(C(N)=O)sc2ccccc12 | 183 to 185
CN1C(=O)C(CCCN2CCN(c3ccc(F)cc3)CC2)Sc2ccccc21 (stereo not drawn) | 103 to 104
O=C(NCCC12CCC(=O)N1C(=O)CC2)OCc1ccccc1 | 118 to 120
Sc1ccc(-c2ccc(-c3ccc(S)c(S)c3)cc2)cc1S | 171 to 172
COC1c2ccccc2C(=O)N1CCN1CCC(Cc2c[nH]c3ccc(F)cc23)CC1 (racemic) | 175
CCn1c(=O)c2[nH]c(/C=C/c3ccc(OC)c(OC)c3Cl)nc2n(CC)c1=O | 278 to 281
O[C@H]1c2cc(Oc3ccc4ccccc4n3)ccc2OC[C@H]1Oc1cccnc1 (relative stereo) | 112 to 114
